Assay results published in patent US20250090507A1, “Methods of Treating Cancer With a B-RAF Inhibitor” (MapKure, LLC, priority 2022, published 2025).

Key:
[1] = Permeability; type: in vitro ADME
[2] = pH value of the solid form; type: physicochemical; details: Form I
[3] = Hygroscopicity; type: physicochemical; details: solid form, Form I

## O=C1CCc2c(Oc3ccc4c(c3)[C@H]3[C@H](NC(=O)Nc5cc(F)c(F)cc5F)[C@H]3O4)ccnc2N1 [Compound A, 1-((1S,1aS,6bS)-5-((7-oxo-5,6,7,8-tetrahydro-1,8-naphthyridin-4-yl)oxy)-1a,6b-dihydro-1H-cyclopropa[b]benzofuran-1-yl)-3-(2,4,5-trifluorophenyl)urea]
[1]; class in words
  Permeability: High
[1]; not told
  Papp: > 10 ×10⁻⁶ cm/s
[2]
  pH value: 5.76
[3]
  Hygroscopicity: Hygroscopic
